# Experimental data as given in patent US20070208087A1, “Compounds, compositions and methods for the treatment of inflammatory diseases” (priority 2001, published 2007).
# Where “and” joins values, the source holds several entries; their conditions need not be identical. Equal values may be shown once. Read-outs that look alike come from different tables or passages of the source.
# Tests used:
# Type in all cases: cell-based
# [1] = system: EOC 13.31 microglia cells; assay: NO release inhibition in LPS/IFNγ stimulated microglia, concurrent treatment, Griess reaction at 24 hours (Example 6); settings: 24 hours; for NO release, Avg: 50 μM; for inhibition at 50 µM: Microglia
# Summary of the method: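 Confluent EOC 13.31 microglia were given 50 μM compound together with 1 pg/ml LPS plus 1 ng/ml IFNγ, or without stimulation. NO release was quantified spectrophotometrically by Griess reaction 24 hours later.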
# Microglial cells = assay: Dose response inhibition of NO release from microglia, 0.5-500 μM (Example 9); settings: for μM NO release / μM NO release (No LPS average subtracted): 3 replicates
# Summary of the method: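 Cells seeded at 1×10^5 cells/ml and, after 48 h, stimulated with 10 ng/ml IFNγ plus 10 μg/ml LPS together with test compounds or L-NAME at 0.5–500 μM. NO release measured by Griess reaction after 48 h.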
# microglia = assay: Ranking of NO release inhibition (Example 12); settings: Microglia, ranking table
# From the text: The bis- and tris-dihydroxyaryl compounds were ranked in order of effectiveness for the inhibition of NO release as set out in Table 8.
# [2] = system: EOC 13.31 microglia cells; assay: Inhibition of NO release from microglia following 24 hours pretreatment (Example 10); settings: for inhibition at 50 µM: Microglia
# Summary of the method: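 Confluent EOC 13.31 cells pretreated 24 hours with 50 μM compound (from 10 mM DMSO stock), then stimulated with 10 μg/ml LPS plus 10 ng/ml IFNγ without media change. After a further 48 hours, NO release was measured by Griess Reaction.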
# [3] = dose 0.5 μM, LPS/IFNγ, 48 hours
# [4] = dose 100 μM, LPS/IFNγ, 48 hours
# [5] = dose 250 μM, LPS/IFNγ, 48 hours
# [6] = dose 500 μM, LPS/IFNγ, 48 hours
structure (smiles),measurement,setting,value
"O=C(NCc1ccc(O)c(O)c1)C(=Cc1ccc(O)c(O)c1)NC(=O)c1ccc(O)c(O)c1 [Compound 21, α-(3,4-dihydroxybenzamido)-3,4-dihydroxycinnamic acid 3,4-dihydroxybenzyl amide]","NO release, Avg",[1]; Compound + LPS/IFNγ,15.3486 µM
same,"NO release, Avg",[1]; Compound Only (without LPS/IFNγ),-0.0417 µM
same,inhibition at 50 µM,"[1]; Compound + LPS/IFNγ, read-out: % inhibition of NO release",17.6%
same,inhibition at 50 µM,"[1]; Table 2 summary, LPS/IFNγ, read-out: % Inhibition (summary of inhibition of NO release)",17.6%
same,inhibition at 0.5 µM,"Microglial cells; Microglia, 48 h, dose 0.5 μM, NO release, LPS/IFNγ, 48 hours, read-out: Avg % Inhibition",-0.76%
same,inhibition at 1 µM,"Microglial cells; Microglia, 48 h, dose 1 μM, NO release, LPS/IFNγ, 48 hours, read-out: Avg % Inhibition",1.01%
same,inhibition at 5 µM,"Microglial cells; Microglia, 48 h, dose 5 μM, NO release, LPS/IFNγ",0.76%
same,inhibition at 10 µM,"Microglial cells; Microglia, 48 h, dose 10 μM, NO release, LPS/IFNγ",-1.27%
same,inhibition at 25 µM,"Microglial cells; Microglia, 48 h, dose 25 μM, NO release, LPS/IFNγ",4.82%
same,inhibition at 50 µM,"Microglial cells; Microglia, 48 h, dose 50 μM, NO release, LPS/IFNγ",13.2%
same,inhibition at 100 µM,"Microglial cells; Microglia, 48 h, dose 100 μM, NO release, LPS/IFNγ, 48 hours, read-out: Avg % Inhibition",35.2%
same,inhibition at 100 µM,"Microglial cells; Microglia, 48 h, dose 100 μM, individual replicates, NO release, LPS/IFNγ, 48 hours, read-out: % inhibition",29.4%
same,inhibition at 250 µM,"Microglial cells; Microglia, 48 h, dose 250 μM, NO release, LPS/IFNγ, 48 hours, read-out: Avg % Inhibition",83.5%
same,inhibition at 250 µM,"Microglial cells; Microglia, 48 h, dose 250 μM, individual replicates, NO release, LPS/IFNγ, 48 hours, read-out: % inhibition",81%
same,inhibition at 500 µM,"Microglial cells; Microglia, 48 h, dose 500 μM, NO release, LPS/IFNγ, 48 hours, read-out: Avg % Inhibition",80.3%
same,inhibition at 500 µM,"Microglial cells; Microglia, 48 h, dose 500 μM, individual replicates, NO release, LPS/IFNγ, 48 hours, read-out: % inhibition",78%
same,μM NO release,Microglial cells; [3],19.722 µM and 20.139 µM and 20.417 µM
same,μM NO release (No LPS average subtracted),Microglial cells; [3],18.02 µM and 18.44 µM and 18.72 µM
same,% inhibition,"Microglial cells; dose 0.5 μM, individual replicates, NO release, LPS/IFNγ, 48 hours",1.27% and −1.01% and −2.54%
same,μM NO release,"Microglial cells; dose 1 μM, LPS/IFNγ, 48 hours",20.694 µM and 19.444 µM and 19.167 µM
same,μM NO release (No LPS average subtracted),"Microglial cells; dose 1 μM, LPS/IFNγ, 48 hours",18.99 µM and 17.74 µM and 17.47 µM
same,% inhibition,"Microglial cells; dose 1 μM, individual replicates, NO release, LPS/IFNγ, 48 hours",−4.06% and 2.79% and 4.31%
same,μM NO release,"Microglial cells; dose 5 μM, LPS/IFNγ, 48 hours",20.278 µM and 20.000 µM and 19.167 µM
same,μM NO release (No LPS average subtracted),"Microglial cells; dose 5 μM, LPS/IFNγ, 48 hours",18.58 µM and 18.30 µM and 17.47 µM
same,% inhibition,"Microglial cells; dose 5 μM, individual replicates, NO release, LPS/IFNγ, 48 hours",−1.78% and −0.25% and 4.31%
same,μM NO release,"Microglial cells; dose 10 μM, LPS/IFNγ, 48 hours",20.556 μM (2×) and 19.444 μM
same,μM NO release (No LPS average subtracted),"Microglial cells; dose 10 μM, LPS/IFNγ, 48 hours",18.86 μM (2×) and 17.74 μM
same,% inhibition,"Microglial cells; dose 10 μM, individual replicates, NO release, LPS/IFNγ, 48 hours",−3.30% (2×) and 2.79%
same,μM NO release,"Microglial cells; dose 25 μM, LPS/IFNγ, 48 hours",19.722 µM and 18.889 µM and 18.611 µM
same,μM NO release (No LPS average subtracted),"Microglial cells; dose 25 μM, LPS/IFNγ, 48 hours",18.02 µM and 17.19 µM and 16.91 µM
same,% inhibition,"Microglial cells; dose 25 μM, individual replicates, NO release, LPS/IFNγ, 48 hours",1.27% and 5.83% and 7.36%
same,μM NO release,"Microglial cells; dose 50 μM, LPS/IFNγ, 48 hours",18.472 µM and 16.806 µM and 17.361 µM
same,μM NO release (No LPS average subtracted),"Microglial cells; dose 50 μM, LPS/IFNγ, 48 hours",16.77 µM and 15.11 µM and 15.66 µM
same,% inhibition,"Microglial cells; dose 50 μM, individual replicates, NO release, LPS/IFNγ, 48 hours",8.12% and 17.25% and 14.20%
same,μM NO release,Microglial cells; [4],14.583 µM and 12.639 µM and 13.333 µM
same,μM NO release (No LPS average subtracted),Microglial cells; [4],12.88 µM and 10.94 µM and 11.63 µM
same,% inhibition,"Microglial cells; dose 100 μM, individual replicates, NO release, LPS/IFNγ, 48 hours",40.07% and 36.27%
same,μM NO release,Microglial cells; [5],5.163 µM and 3.940 µM and 5.027 µM
same,μM NO release (No LPS average subtracted),Microglial cells; [5],3.46 µM and 2.24 µM and 3.33 µM
same,% inhibition,"Microglial cells; dose 250 μM, individual replicates, NO release, LPS/IFNγ, 48 hours",87.73% and 81.77%
same,μM NO release,Microglial cells; [6],5.707 µM and 4.348 µM and 5.842 µM
same,μM NO release (No LPS average subtracted),Microglial cells; [6],4.01 µM and 2.65 µM and 4.14 µM
same,% inhibition,"Microglial cells; dose 500 μM, individual replicates, NO release, LPS/IFNγ, 48 hours",85.49% and 77.31%
same,"inhibition of NO release, in words",Microglial cells; dose response 0.5-500 μM,most effective at the 250 μM dose
same,inhibition at 50 µM,microglia,18%
same,% inhibition,"[2]; 50 uM pretreatment 24 hours, then LPS/IFNγ 48 hours, single replicates",82.29% and 84.17%
same,inhibition at 50 µM,"[2]; 50 uM pretreatment 24 hours, then LPS/IFNγ 48 hours, read-out: Avg % Inhibition",83.9%
same,inhibition at 50 µM,"[2]; 50 uM pretreatment 24 hours, then LPS/IFNγ 48 hours, single replicates, read-out: % inhibition",85.2%
same,inhibition at 50 µM,"[2]; 50 μM pretreatment, read-out: inhibition of NO release following pretreatment",> 75%
